Reference: ChEMBL document CHEMBL1155634, “New butenolides from two marine streptomycetes” (J Nat Prod, 2000)
The source made the active and inactive calls. The rule behind the calls is not given here.

Tests used:
Format in all cases: functional, organism-based
[1] = system: Streptomyces viridochromogenes; assay: Antibacterial activity against Streptomyces viridochromogenes Tu57 assessed as inhibition of spore formation
Escherichia coli = assay: Antibacterial activity against Escherichia coli
Staphylococcus aureus = assay: Antibacterial activity against Staphylococcus aureus
Candida albicans = assay: Antifungal activity against Candida albicans
Rhizomucor miehei = assay: Antifungal activity against Mucor miehei Tu284
[2] = system: Streptomyces viridochromogenes; assay: Antibacterial activity against Streptomyces viridochromogenes Tu57

CC(O)C(C)CCCCC[C@H]1C=CC(=O)O1 (stereo in doubt; 3)
Activity [1]: inactive

CC(O)C(C)CCCCC[C@H]1C=CC(=O)O1 (stereo in doubt; 2)
Activity [1]: inactive

CC(=O)C(C)CCCCC[C@H]1C=CC(=O)O1 (some centres undefined)
Activity (Escherichia coli): inactive | Activity (Staphylococcus aureus): inactive | Activity (Candida albicans): inactive | Activity (Rhizomucor miehei): inactive | Activity [2]: inactive | Activity [1]: inactive

CCC(C)(O)CCCCC[C@H]1C=CC(=O)O1 (some centres undefined)
Activity [1]: inactive
